This data set can be described thus: Measurement of particle size by the microscopic method. It is filed as physicochemical. To be noted: no treatment; for weight of the material that would pass through the 250 μm sieve: share by weight; for particles smaller than 30 μm: share of all particles. The method, then:
The drawings represent results of measurement of the particle size of the product prepared according to Example 2 by a microscopic method.
For all the batches, measurement of particle size was performed without any treatment using the microscopic method.

Regarding `Cc1ccc(O)c([C@H](CCN(C(C)C)C(C)C)c2ccccc2)c1.O=C(O)C(O)C(O)C(=O)O` [Batch I, R-tolterodine tartarate], the maximum crystal size stood at 623 μm, the “weight of the material that would pass through the 250 μm sieve” value (“weight” below) worked out at 40.9% and the “particles smaller than 30 μm” value is 91.95%. Besides, where the note is “listed as batch I”, the maximum crystal size was found to be 623 μm, the “weight” value turned out to be 40.9% and the “particles smaller than 30 μm” value was 91.95%.
As to `Cc1ccc(O)c([C@H](CCN(C(C)C)C(C)C)c2ccccc2)c1.O=C(O)C(O)C(O)C(=O)O` [Batch II, R-tolterodine tartarate], the maximum crystal size is listed as 439 μm, the “weight” value is listed as 47.2% and the “particles smaller than 30 μm” value is 94.73%. Also, for the setting “listed as batch II”, the maximum crystal size is 439 μm, the “weight” value is reported as 47.2% and the “particles smaller than 30 μm” value is given as 94.73%.
As to `Cc1ccc(O)c([C@H](CCN(C(C)C)C(C)C)c2ccccc2)c1.O=C(O)C(O)C(O)C(=O)O` [Batch III, R-tolterodine tartarate], the maximum crystal size is 702 μm, the “weight” value was 41.3% and the “particles smaller than 30 μm” value is reported as 89.29%. For the same molecule, under “listed as batch III”, the maximum crystal size worked out at 702 μm, the “weight” value is recorded as 41.3% and the “particles smaller than 30 μm” value is on record as 89.29%.

For the origin of these results see US20100189786A1, “CRYSTALLINE TOLTERODINE TARTARATE AND A PHARMACEUTICAL COMPOSITION CONTAINING THE SAME” (priority 2006, published 2010).
